# Reference: patent US10709783B2, “Neutron capture therapy system for eliminating amyloid β-protein” (NEUBORON MEDTECH LTD., priority 2015, dated 2020)
# Read-outs that look alike come from different tables or passages of the source.
# What was measured:
# [1] = Micro-PET scan of brain uptake of ^11C-labelled compound in SAMP8 model mice and control mice; type: in vivo; details: mouse, 31 μCi; for tissue uptake at 5 min: 5 min after injection; for tissue uptake at 15 min: 15 min after injection; for tissue uptake at 25 min: 25 min after injection; for tissue uptake at 35 min: 35 min after injection
# Experimental: (§1) SAMP8 (senescence accelerated mouse prone 8) mice are the most common animal model of AD (Alzheimer's disease), in its brain there are a large number of amyloid deposition plaque. In this example, SAMP8 mice were used as model mice, and the normal mice were used as the control mice. Both the model mice and the control mice were 10 months old. The two mice were injected with 6-borono-2-(4-methylaminophenyl)benzothiazole containing ^11C labeling, and the Micro-PET scan is used to study whether 6-borono-2-(4-methylaminophenyl)benzothiazole and amyloid β-protein have specific binding properties. Model mice and control mice weighing 31.5±0.3 g were selected, 31.0±0.6 μCi of ^11C labelled 6-borono-2-(4-methylaminophenyl)benzothiazole were injected thereto, and Micro-PET of Model INVEON from Siemens were used for scan, where the scanning window was 350-650 KeV.
# (§2) It is well known to those skilled in the art that the major cause of Alzheimer's disease is that the amyloid β-protein deposition plaques accumulate in the cerebral cortex and hippocampus of the brain. In this example, Micro-PET scanned and compared the brains of the model and control mice using PMOD software. And the absorption of radioactive 6-borono-2-(4-methylaminophenyl)benzothiazole in the cerebral cortex and hippocampus of SAMP8 model mice and control mice was determined, to further illustrate that the compound is capable of specifically binding to amyloid β-protein deposition plaques.
# [2] = tested on: amyloid β-protein deposition plaques; assay: as above; type: in vivo
# Experimental: as §1, §2
# [3] = cerebral cortex, other: injected (kind of injection not stated), SAMP8 model mice, read-out: Cerebral cortex uptake of radiopharmaceuticals, Model mice
# [4] = cerebral cortex, other: injected (kind of injection not stated), normal control mice, read-out: Cerebral cortex uptake of radiopharmaceuticals, Control mice
# [5] = hippocampus, other: injection (kind of injection not stated), SAMP8 model mice, read-out: hippocampus uptake of radiopharmaceuticals, Model mice
# [6] = hippocampus, other: injection (kind of injection not stated), normal control mice, read-out: hippocampus uptake of radiopharmaceuticals, Control mice
compound,measurement,setting,value
CNc1ccc(-c2nc3ccc(B(O)O)cc3s2)cc1 [6-borono-2-(4-methylaminophenyl)benzothiazole],tissue uptake at 5 min,[1]; [3],3.03 %ID/g
same,tissue uptake at 15 min,[1]; [3],2.88 %ID/g
same,tissue uptake at 25 min,[1]; [3],2.79 %ID/g
same,tissue uptake at 35 min,[1]; [3],2.68 %ID/g
same,tissue uptake at 5 min,[1]; [4],1.61 %ID/g
same,tissue uptake at 15 min,[1]; [4],1.48 %ID/g
same,tissue uptake at 25 min,[1]; [4],1.17 %ID/g
same,tissue uptake at 35 min,[1]; [4],0.99 %ID/g
same,tissue uptake at 5 min,[1]; [5],3.44 %ID/g
same,tissue uptake at 15 min,[1]; [5],3.5 %ID/g
same,tissue uptake at 25 min,[1]; [5],3.45 %ID/g
same,tissue uptake at 35 min,[1]; [5],3.27 %ID/g
same,tissue uptake at 5 min,[1]; [6],1.8 %ID/g
same,tissue uptake at 15 min,[1]; [6],1.49 %ID/g
same,tissue uptake at 25 min,[1]; [6],1.09 %ID/g
same,tissue uptake at 35 min,[1]; [6],1.01 %ID/g
same,Cerebral cortex uptake Ratio (model mice/control mice),[2]; 5 min after injection,1.9
same,hippocampus uptake Ratio (model mice/control mice),[2]; 5 min after injection,1.9
same,Cerebral cortex uptake Ratio (model mice/control mice),[2]; 15 min after injection,1.9
same,hippocampus uptake Ratio (model mice/control mice),[2]; 15 min after injection,2.3
same,Cerebral cortex uptake Ratio (model mice/control mice),[2]; 25 min after injection,2.4
same,hippocampus uptake Ratio (model mice/control mice),[2]; 25 min after injection,3.2
same,"brain radiopharmaceutical absorption in PET image (FIG. 4), SAMP8 model mouse relative to control mice",[2]; 30 min after injection,accumulated a large amount of radiopharmaceuticals
same,Cerebral cortex uptake Ratio (model mice/control mice),[2]; 35 min after injection,2.7
same,hippocampus uptake Ratio (model mice/control mice),[2]; 35 min after injection,3.2
